Test results published in ChEMBL document CHEMBL4483862, “Open-source discovery of chemical leads for next-generation chemoprotective antimalarials” (2018).

Test system: Plasmodium berghei
Test: Luciferase/luciferin-expressing antifolate-resistant parasites were used to infect a culture of HepG2 cells that were pre-incubated with compounds. Infected hepatocytes emit light due to the luciferase reaction. Assay results are presented as the percent inhibition of light emission compared to control. […]
Type: functional
Conditions: sporozoite; for IC90: read-out: LUCIFERASE INFECTION ASSAY - IC90

SMILES | IC90 [µM] | further results
O=c1c2ccccc2sc2nc(C3CCCCC3)n(Cc3ccco3)c(=O)c12 | > 8.41 | IC50 (PBLUC_HILL_SLOPE 3.17, PBLUC_R_SQUARED 0.712, read-out: LUCIFERASE INFECTION ASSAY - IC50): 4.57 µM
CSc1nncn1-c1ccccc1 | 15.4 | IC50 (PBLUC_HILL_SLOPE 3.17, PBLUC_R_SQUARED 0.315, read-out: LUCIFERASE INFECTION ASSAY - IC50): 7.69 µM
NC1=C(c2ccccc2)C(=O)c2ccccc21 | > 14.9 | IC50 (PBLUC_HILL_SLOPE 3.17, PBLUC_R_SQUARED 0.165, read-out: LUCIFERASE INFECTION ASSAY - IC50): > 14.9 µM
Cc1nn(Cc2ccccc2Cl)c(Cl)c1C(=O)OC(C(=O)c1c[nH]c2ccccc12)c1ccccc1 (stereo not given) | > 10 | IC50 (PBLUC_HILL_SLOPE 3.17, PBLUC_R_SQUARED 0.115, read-out: LUCIFERASE INFECTION ASSAY - IC50): 6.36 µM
COC(=O)C1=C(C)NC(C)=C(C(=O)OC)C1c1cc(NC(=O)c2cccc(OC(F)F)c2)ccc1OC(F)F | 8.9 | IC50 (PBLUC_HILL_SLOPE 3.17, PBLUC_R_SQUARED 0.755, read-out: LUCIFERASE INFECTION ASSAY - IC50): 4.45 µM
Cc1cc(C)n(-c2nc(-c3ccccc3)cc(N3CCCC3)n2)n1 | 8.47 | IC50 (PBLUC_HILL_SLOPE 3.13, PBLUC_R_SQUARED 0.498, read-out: LUCIFERASE INFECTION ASSAY - IC50): 4.2 µM
CCCn1c(-c2ccc(OC)cc2)nc2c(c(=O)c3ccccc3n2C)c1=O | 7.12 | IC50 (PBLUC_HILL_SLOPE 3.15, PBLUC_R_SQUARED 0.522, read-out: LUCIFERASE INFECTION ASSAY - IC50): 3.55 µM
COCCCN1C(=O)N(Cc2ccc3ccccc3c2)C(=O)C12CCN(Cc1ccc(C)cc1)CC2 | > 6.8 | IC50 (PBLUC_HILL_SLOPE 3.14, PBLUC_R_SQUARED 0.039, read-out: LUCIFERASE INFECTION ASSAY - IC50): 4.02 µM
Cc1cc(C)n2nc(SCC(=O)c3c(-c4ccccc4)[nH]c4ccccc34)nc2n1 | 5.12 | IC50 (PBLUC_HILL_SLOPE 3.17, 7.12, PBLUC_R_SQUARED 0.979, 0.666, read-out: LUCIFERASE INFECTION ASSAY - IC50): 4.67 µM
C=CCNC(=O)C(C)Sc1nnc(-c2ccc(C)cc2)c(-c2ccc(C)cc2)n1 (stereo not given) | 2.06 | IC50 (PBLUC_HILL_SLOPE 3.18, 2.13, PBLUC_R_SQUARED 0.929, 0.663, read-out: LUCIFERASE INFECTION ASSAY - IC50): 0.807 µM
CN(C)c1ccc(CNCC2(c3ccnc(-c4cccc(N(C)C)c4)c3)CC2)cc1 | > 10 | IC50 (PBLUC_HILL_SLOPE 3.17, PBLUC_R_SQUARED 0.141, read-out: LUCIFERASE INFECTION ASSAY - IC50): 9.64 µM
O=C(CN1CCN(c2cccc(Cl)c2)CC1)Nc1cc(C2CC2)nn1-c1ccccc1 | > 10 | IC50 (PBLUC_HILL_SLOPE 3.16, PBLUC_R_SQUARED 0.0582, read-out: LUCIFERASE INFECTION ASSAY - IC50): 6.87 µM
O=C(Nc1ccc(Oc2ccnc3cc(Cl)ccc23)cc1)c1ccco1 | 2.99 | IC50 (PBLUC_HILL_SLOPE 3.16, PBLUC_R_SQUARED 0.555, read-out: LUCIFERASE INFECTION ASSAY - IC50): 1.49 µM
c1ccc(CCNCc2cn(-c3ccccc3)nc2-c2cccs2)cc1 | > 10 | IC50 (PBLUC_HILL_SLOPE 3.19, PBLUC_R_SQUARED 0.352, read-out: LUCIFERASE INFECTION ASSAY - IC50): 9.18 µM
C=c1onc(-c2c(F)cccc2Cl)c1=C1NC(c2ccccn2)=NO1 | > 9.25 | IC50 (PBLUC_HILL_SLOPE 3.2, PBLUC_R_SQUARED 0.36, read-out: LUCIFERASE INFECTION ASSAY - IC50): 6.04 µM
N#Cc1ccc(C(=O)Nc2cccc(Oc3ccccc3)c2)cc1 | > 10 | IC50 (PBLUC_HILL_SLOPE 3.19, PBLUC_R_SQUARED 0.12, read-out: LUCIFERASE INFECTION ASSAY - IC50): 6.33 µM
CC(=O)Nc1cccc(-c2cn3c(-c4ccc(Cl)cc4)cnc3cn2)c1 | 3.69 | IC50 (PBLUC_HILL_SLOPE 3.14, PBLUC_R_SQUARED 0.81, read-out: LUCIFERASE INFECTION ASSAY - IC50): 1.83 µM
FC(F)(F)c1cccc(-c2noc(CCc3nc4ccccc4[nH]3)n2)c1 | 7.22 | IC50 (PBLUC_HILL_SLOPE 3.19, PBLUC_R_SQUARED 0.657, read-out: LUCIFERASE INFECTION ASSAY - IC50): 3.63 µM
C=CCc1c(C)[nH]c2c(-c3ccccc3)cnn2c1=O | 12.1 | IC50 (PBLUC_HILL_SLOPE 3.12, PBLUC_R_SQUARED 0.621, read-out: LUCIFERASE INFECTION ASSAY - IC50): 6 µM
Cc1c(Sc2ccc(Cl)cc2)c2ccccn2c1C(=O)c1cccs1 | > 10 | IC50 (PBLUC_HILL_SLOPE 3.16, PBLUC_R_SQUARED 0.487, read-out: LUCIFERASE INFECTION ASSAY - IC50): 6.35 µM

SMILES | IC90 [µM] | further results
OCCN1N=C2c3cc(Cl)ccc3SCC2C1c1ccc(Cl)cc1 (stereo not given) | > 8.7 | IC50 (PBLUC_HILL_SLOPE 3.12, PBLUC_R_SQUARED 0.594, read-out: LUCIFERASE INFECTION ASSAY - IC50): 7.08 µM
Cn1c(-c2c(-c3ccccc3)n[nH]c2-c2ccc([N+](=O)[O-])cc2)nc2ccccc21 | 9.52 | IC50 (PBLUC_HILL_SLOPE 3.22, PBLUC_R_SQUARED 0.201, read-out: LUCIFERASE INFECTION ASSAY - IC50): 4.81 µM
Cn1cc(-c2cnc3cnc(-c4ccc5c(c4)OCO5)cn23)cn1 | > 10.3 | IC50 (PBLUC_HILL_SLOPE 3.19, PBLUC_R_SQUARED 0.356, read-out: LUCIFERASE INFECTION ASSAY - IC50): 9.57 µM
Cc1ccc(-n2nnnc2COc2cc(C)ccc2C(C)C)c(C)c1 | > 9.81 | IC50 (PBLUC_HILL_SLOPE 3.14, PBLUC_R_SQUARED 0.65, read-out: LUCIFERASE INFECTION ASSAY - IC50): 6.61 µM
N#C/C(=C\c1cc(Cl)cc(Cl)c1O)c1ccc([N+](=O)[O-])cc1 | 6.14 | IC50 (PBLUC_HILL_SLOPE 3.19, PBLUC_R_SQUARED 0.599, read-out: LUCIFERASE INFECTION ASSAY - IC50): 3.08 µM
Oc1c(C(c2ccc(F)cc2)N2CCCCC2)cc(Cl)c2cccnc12 (stereo not given) | > 10 | IC50 (PBLUC_HILL_SLOPE 3.21, PBLUC_R_SQUARED 0.483, read-out: LUCIFERASE INFECTION ASSAY - IC50): 6.21 µM
O=C(NCCO)c1cccc(-c2ccc3ncc(-c4cccc(OC(F)(F)F)c4)n3n2)c1 | 9.96 | IC50 (PBLUC_HILL_SLOPE 3.2, PBLUC_R_SQUARED 0.416, read-out: LUCIFERASE INFECTION ASSAY - IC50): 5.01 µM
CC/C=C1/CC(=O)N(c2ccccc2)C1=O | 14.2 | IC50 (PBLUC_HILL_SLOPE 3.2, PBLUC_R_SQUARED 0.213, read-out: LUCIFERASE INFECTION ASSAY - IC50): 7.15 µM
FC(F)(F)c1cc(NCc2ccccc2C(F)(F)F)nc(-c2ccccn2)n1 | 7.12 | IC50 (PBLUC_HILL_SLOPE 3.13, PBLUC_R_SQUARED 0.711, read-out: LUCIFERASE INFECTION ASSAY - IC50): 3.52 µM
O=C1Nc2ccc(Cl)cc2/C1=C/c1cn(Cc2ccccc2)nc1-c1cccnc1 | > 10 | IC50 (PBLUC_HILL_SLOPE 3.18, PBLUC_R_SQUARED 0.696, read-out: LUCIFERASE INFECTION ASSAY - IC50): 5.57 µM
Cc1ccc(CC(=O)NCc2ccc(C#N)cc2)cc1 | 8.45 | IC50 (PBLUC_HILL_SLOPE 3.17, PBLUC_R_SQUARED 0.517, read-out: LUCIFERASE INFECTION ASSAY - IC50): 4.23 µM
CC(C)(C)c1ccc(-n2c(SCc3ccc(Cl)cc3)nnc2-c2ccccc2Cl)cc1 | > 7.04 | IC50 (PBLUC_HILL_SLOPE 3.18, PBLUC_R_SQUARED 0.744, read-out: LUCIFERASE INFECTION ASSAY - IC50): > 7.04 µM
CC(C)Oc1ccc(Nc2cc3c(cn2)nc(NCc2ccccc2)n3C)cc1 | > 10 | IC50 (PBLUC_HILL_SLOPE 3.16, PBLUC_R_SQUARED 0.219, read-out: LUCIFERASE INFECTION ASSAY - IC50): 5.76 µM
CCOC(=O)c1cc(-c2ccccc2)sc1NC(=O)CSc1nnc(-c2cccnc2)n1-c1ccccc1C | > 10 | IC50 (PBLUC_HILL_SLOPE 3.21, PBLUC_R_SQUARED 0.715, read-out: LUCIFERASE INFECTION ASSAY - IC50): 6.74 µM
CC(=O)NCCCc1ccc(C(=O)COC(=O)c2ccccc2-n2cnnn2)cc1 | 2.51 | IC50 (PBLUC_HILL_SLOPE 3.15, PBLUC_R_SQUARED 0.801, read-out: LUCIFERASE INFECTION ASSAY - IC50): 1.25 µM
Cc1nn(Cc2ccccc2)c(C)c1C(=O)N1CCN(CCOc2ccc(Cl)cc2)CC1 | > 10 | IC50 (PBLUC_HILL_SLOPE 3.21, PBLUC_R_SQUARED 0.27, read-out: LUCIFERASE INFECTION ASSAY - IC50): 9.94 µM
FC(F)(F)c1cc(N/N=C2/CCSc3sccc32)cc(C(F)(F)F)c1 | > 8.33 | IC50 (PBLUC_HILL_SLOPE 3.14, PBLUC_R_SQUARED 0.463, read-out: LUCIFERASE INFECTION ASSAY - IC50): 4.15 µM
O=C(Nc1nc2ccccc2[nH]1)c1cn(Cc2ccccc2)nc1-c1cccnc1 | > 10 | IC50 (PBLUC_HILL_SLOPE 3.18, PBLUC_R_SQUARED 0.533, read-out: LUCIFERASE INFECTION ASSAY - IC50): 7.1 µM
Cc1nn(C(=O)c2c(Cl)cccc2Cl)c(C)c1Cc1c(Cl)cccc1Cl | > 7.71 | IC50 (PBLUC_HILL_SLOPE 3.14, PBLUC_R_SQUARED 0.492, read-out: LUCIFERASE INFECTION ASSAY - IC50): 5.28 µM
CC(=O)Nc1ccc(Nc2cc3[nH]c(-c4cccc(F)c4)cc3cn2)cc1 | 9.16 | IC50 (PBLUC_HILL_SLOPE 3.2, PBLUC_R_SQUARED 0.299, read-out: LUCIFERASE INFECTION ASSAY - IC50): 4.6 µM
